In brackets after ≈: the same amount, converted by molar mass.

These results are taken from ChEMBL document CHEMBL2380203, “Structure-activity relationship of cytochrome bc1 reductase inhibitor broad spectrum antifungal ilicicolin H” (Bioorg Med Chem Lett, 2013).

Assay [1] can be described thus: Inhibition of Candida albicans MY1055 NADH:cytochrome bc1 reductase.
A short description of assay [2]: Inhibition of rat liver NADH:cytochrome bc1 reductase.
Another assay deals with Candida albicans. The assay can be described thus: Antifungal activity against Candida albicans MY1055 assessed as growth inhibition after 24 hrs by liquid microdilution assay. The assay is classed as functional. Conditions: MY1055, 24 h.

For orientation: IC50 means the concentration that gives 50% inhibition. By MIC is commonly meant the lowest concentration found to suppress growth. For the compound `CC1O[C@H]1[C@@H]1[C@H]2C[C@@H](C)CC[C@@H]2[C@](C)(O)[C@H]2Oc3ncc(-c4ccc(O)cc4)c(O)c3C(=O)[C@@H]12` (some centres not stated), the results for the IC50 in assay [1] and in assay [2] were above 1 µg/mL and 1 µg/mL (≈ 2.15 µM), respectively. The MIC with Candida albicans was above 5 µg/mL.
In the case of `C/C=C/[C@@H]1[C@H]2C[C@@H](C)CC[C@@H]2C(C)=C[C@H]1C(=O)c1c(O)c(-c2ccc(OC(=O)CNC(=O)OCC3c4ccccc4-c4ccccc43)cc2)c[nH]c1=O`, the figures for the IC50 in assay [1] and in assay [2] were 0.006 µg/mL (≈ 0.00842 µM) and 1 µg/mL (≈ 1.4 µM), respectively. In addition, the MIC with Candida albicans was found to be 0.125 µg/mL (≈ 0.175 µM).
With `C/C=C/[C@@H]1[C@H]2C[C@@H](C)CC[C@@H]2[C@](C)(Br)[C@H]2Oc3ncc(-c4ccc(O)cc4)c(O)c3C(=O)[C@@H]12`, the results for the IC50 in assay [1] and in assay [2] were above 1 µg/mL and 1 µg/mL (≈ 1.95 µM), respectively. Moreover, the MIC in the assay on Candida albicans is above 5 µg/mL.
As for `C/C=C/[C@@H]1[C@H]2C[C@@H](C)CC[C@@H]2C(C)=C[C@H]1C(=O)c1c(O)c(-c2ccc(OCC#N)cc2)c[nH]c1=O`, the figures for the IC50 in assay [1] and in assay [2] were 0.006 µg/mL (≈ 0.0127 µM) and 1 µg/mL (≈ 2.12 µM), respectively. Moreover, the MIC with Candida albicans turned out to be 0.125 µg/mL (≈ 0.265 µM).
On the same counts, the results for `C/C=C/[C@@H]1[C@H]2C[C@@H](CO)CC[C@@H]2C(C)=C[C@H]1C(=O)c1c(O)c(-c2ccc(O)cc2)c[nH]c1=O` are 0.4 µg/mL (≈ 0.89 µM), 0.4 µg/mL (≈ 0.89 µM) and 0.25 µg/mL (≈ 0.556 µM).
For `C/C=C/[C@@H]1[C@H]2C[C@@H](C)CC[C@@H]2C(C)=C[C@H]1C(=O)c1c(O)c(-c2ccc(O)cc2)cn(CC(=O)OC(C)(C)C)c1=O`, the values for the IC50 in assay [1] and in assay [2] were above 1.6 µg/mL and 1.6 µg/mL (≈ 2.92 µM), respectively. The MIC with Candida albicans was above 5 µg/mL.
In the case of `C/C=C/[C@@H]1[C@H]2C[C@@H](C)CC[C@@H]2C(C)=C[C@H]1C(=O)c1c(O)c(-c2ccc(OC(=O)C/C=C/c3ccccc3)cc2)c[nH]c1=O`, the IC50 in assay [1] stood at 0.02 µg/mL (≈ 0.0346 µM); in assay [2], 1.6 µg/mL (≈ 2.77 µM). The MIC in the assay on Candida albicans is 0.312 µg/mL (≈ 0.54 µM).
`C/C=C/[C@@H]1[C@H]2C[C@@H](C)CC[C@@H]2C(C)=C[C@H]1C(=O)c1c(O)c(-c2ccc(OC(=O)C3CC3)cc2)c[nH]c1=O`: the IC50 in assay [1] is 0.015 µg/mL (≈ 0.0299 µM); in assay [2] it was above 0.8 µg/mL. The minimal inhibitory concentration (MIC) with Candida albicans is 0.062 µg/mL (≈ 0.124 µM).
On the same counts, the results for `C/C=C/[C@@H]1[C@H]2C[C@@H](C)CC[C@@H]2C(C)=C[C@H]1C(=O)c1c(O)c(-c2ccc(O)cc2)cn(CC(=O)O)c1=O` are above 1 µg/mL, 1 µg/mL (≈ 2.03 µM) and above 5 µg/mL.
Regarding `C/C=C/[C@@H]1[C@H]2C[C@@H](C)CC[C@@H]2C(C)=C[C@H]1C(=O)c1c(O)c(-c2ccc(OC(=O)C3CCCC3)cc2)c[nH]c1=O`, the figures for the IC50 in assay [1] and in assay [2] were 0.01 µg/mL (≈ 0.0189 µM) and above 0.8 µg/mL, respectively. The MIC in the assay with Candida albicans was 1 µg/mL (≈ 1.89 µM).
With `C/C=C/[C@@H]1[C@H]2C[C@@H](COC(=O)CC)CC[C@@H]2C(C)=C[C@H]1C(=O)c1c(O)c(-c2ccc(OC(=O)CC)cc2)c[nH]c1=O`, the results for the IC50 in assay [1] and in assay [2] were 0.01 µg/mL (≈ 0.0178 µM) and above 0.8 µg/mL, respectively. Moreover, the MIC with Candida albicans turned out to be 0.125 µg/mL (≈ 0.223 µM).
Regarding `C/C=C/[C@@H]1[C@H]2C[C@@H](C)CC[C@@H]2C(C)=C[C@H]1C(=O)c1c(O)c(-c2ccc(OC(=O)/C=C/c3ccsc3)cc2)c[nH]c1=O`, the values for the IC50 in assay [1] and in assay [2] were 0.5 µg/mL (≈ 0.878 µM) and above 1 µg/mL, respectively. In addition, the minimal inhibitory concentration (MIC) with Candida albicans was found to be 1 µg/mL (≈ 1.76 µM).
The corresponding values for `C/C=C/[C@@H]1[C@H]2C[C@@H](C)CC[C@@H]2C(C)=C[C@H]1C(=O)c1c(O)c(-c2ccc(OCC)cc2)c[nH]c1=O` are 1 µg/mL (≈ 2.17 µM), 1 µg/mL (≈ 2.17 µM) and above 5 µg/mL.
Consider `C/C=C/[C@@H]1[C@H]2C[C@@H](CO)CC[C@@H]2C(C)=C[C@H]1C(=O)c1c(O)c(-c2ccc(OC(C)=O)cc2)c[nH]c1=O`, for which the IC50 is 0.16 µg/mL (≈ 0.325 µM) in assay [1] and above 0.8 µg/mL in assay [2]. Moreover, in the assay on Candida albicans, the MIC amounted to 0.5 µg/mL (≈ 1.02 µM).
